According to EP3168211A1, “PHARMACEUTICAL CO-CRYSTALS OF NICLOSAMIDE” (Westfälische Wilhelms-Universität Münster, priority 2015, dated 2017):
In brackets after ≈: the same amount, converted by molar mass.

Key:
[1] = for increase of the equilibrium solubility: result in words, versus pristine NCL; for factor: equilibrium solubility relative to pristine NCL; for factor / Solubility at 37° C (24 h) in 40% isopropanol-water mixture: 37°C, 24 h, 40% isopropanol-water; for Solubility at 37° C (24 h) in 40% isopropanol-water mixture: equilibrium solubility, shake-flask, sample normalized to 50 mg of NCL in 2.5 mL
[2] = solubility factor relative to NCL reported by P. Sanphui et al.; weights not normalized to the amount of NCL; cited from earlier work
[3] = physchem; conditions: 37 °C, aqueous with cosolvent or surfactant or cyclodextrin, thermodynamic from solid
[4] = male Sprague-Dawley rats; cited from earlier work

Row | Compound | increase of the equilibrium solubility [1] | factor [1] | Solubility at 37° C (24 h) in 40% isopropanol-water mixture [1] | factor* [2] | solubility at 24 h [3] | oral bioavailability [4]
1 | Niclosamide - acetamide [NCL-AA-I] | moderate increase | 1.4 |  |  |  | 
2 | O=C(Nc1ccc([N+](=O)[O-])cc1Cl)c1cc(Cl)ccc1O [NCL, 2',5-dichloro-4'-nitrosalicylanilide] |  |  |  |  | 87.2 µg/mL (≈ 266 µM) | 10%

Second part, led by results:

Row | increase of the equilibrium solubility [1] | factor [1] | Solubility at 37° C (24 h) in 40% isopropanol-water mixture [1] | Compound | factor* [2] | solubility at 24 h [3] | oral bioavailability [4]
3 | moderate increase |  |  | Niclosamide - isoniazide [NCL-IN] |  |  | 
4 |  | 1.3 | 113.45 µg/mL | Niclosamide - isonicotinamide [NCL-IA] | 1.7 |  | 
5 |  | 1.3 | 114.45 µg/mL | Niclosamide - nicotinamide [NCL-NA] | 1.2 |  | 
